# Laboratory results reported in patent US7384789B2, “Divalent metal ion sensors and binders” (The University of North Dakota, priority 2006, dated 2008).
# pKd: −log10 of the molar value.
# Columns and labels:
# [1] = Cai et al., Inorg. Chim. Acta 1997; cited from earlier work
# Solubility = assay type: physicochemical; settings: for solubility: solvent not given
# [2] = Fluorescence emission profile with stoichiometric divalent metal ion: Zn^2+; settings: for effect of Zn^2+ on fluorescence emission intensity: stoichiometric ion, λex/λem: compound 1 300/390 nm, compound 3 315/357 nm, compound 4 365/520 nm
# Method: (§1) Commercially available reagents, obtained from Acros Organics and Aldrich were used as received. All solvents were distilled before use. Reactions were monitored by thin-layer chromatography (TLC) and visualization was accomplished with a UV lamp. Reaction mixtures were purified by column chromatography, performed with the indicated solvents using silica gel (230-400 mesh). The Rf values were calculated based on the eluents used for purification. The yields reported refer to chromatographically and spectroscopically pure compounds. The purity of the compounds were ascertained by GC/MS analysis (HP 5890 Series II GC fitted with HP 5971 Series Mass Selective Detector). ^1H and proton decoupled ^13C NMR spectra were recorded on a Bruker AMX 500 MHz spectrometer at ambient temperature. The fluorescence spectra were obtained using Jobin Yvon Horiba Fluorolog-3 spectrofluorometer. The HEPES buffer was prepared from commercially available 1M solution of the free acid and the pH was adjusted to 7.0 by the addition of KOH pellets in the presence of 0.135 M NaCl. The fluorescence measurements were carried out on 3 mL samples of the sensor and 3 μL aliquots of the 200 mM metal ion solution in HEPES were added to the sample to make up the desired metal concentrations.
# (§2) The influence of divalent metal ions on the fluorescence spectral profile of compound 1 is shown in FIG. 1, where the fluorescence emission spectra of 200 μM compound 1 (λex=300 nm) with stoichiometric concentrations of selected divalent metal ions. Compound 1 has a weak fluorescence emission peak around 386-390 nm, which is differently affected by different metal ions. […] In contrast, the fluorescence intensity of compound 1 decreases in the presence of Cu^2+, Ni^2+, and Co^2+.
# The influence of divalent metal ions on the fluorescence spectral profile of compound 3 is shown in FIG. 3, where the fluorescence emission spectra of 200 μM […] (λex=315 nm) with stoichiometric concentrations of selected divalent metal ions. Compound 3 has a weak fluorescence emission peak around 355-360 nm, which is differently affected by different metal ions. […] In contrast, as expected, the fluorescence intensity of compound 3 decreases in the presence of Cu^2+, Ni^2+, and Co^2+. […] Titration of compound 3 with Zn^2+ indicates a Kd value of 2 mM (approx.).
# The influence of divalent metal ions on the fluorescence spectral profile of compound is shown in FIG. 4, where the fluorescence emission spectra of 200 μM […] (λex=365 nm) with stoichiometric concentrations of selected divalent metal ions. Compound 4 has a UV absorption maximum at 425 nm. […] Excitation at shorter wavelengths e.g. at 365 nm leads to a weak emission peak around 520 nm, which is differently affected by different metal ions.
# [3] = Fluorescence emission profile with stoichiometric divalent metal ion: Ca^2+; settings: 200 μM compound, λex/λem: compound 1 300/390 nm, compound 3 315/357 nm, compound 4 365/520 nm
# Method: as §1, with “The HEPES buffer was prepared from commercially available 1M solution of the free acid and the pH was adjusted to 7.0 by the addition of KOH pellets in the presence of 0.135 M NaCl.” left out
# as §2
# (§3) The influence of divalent metal ions on the fluorescence spectral profile of compound 3 is shown in FIG. 3, where the fluorescence emission spectra of 200 μM […] (λex=315 nm) with stoichiometric concentrations of selected divalent metal ions. Compound 3 has a weak fluorescence emission peak around 355-360 nm, which is differently affected by different metal ions. […] In contrast, as expected, the fluorescence intensity of compound 3 decreases in the presence of Cu^2+, Ni^2+, and Co^2+. […]
# [4] = Fluorescence emission profile with stoichiometric divalent metal ion: Cu^2+; settings: 200 μM compound, λex/λem: compound 1 300/390 nm, compound 3 315/357 nm, compound 4 365/520 nm
# Method: as §1, with “The HEPES buffer was prepared from commercially available 1M solution of the free acid and the pH was adjusted to 7.0 by the addition of KOH pellets in the presence of 0.135 M NaCl.” left out
# as §2, §3
# [5] = Fluorescence emission profile with stoichiometric divalent metal ion: Co^2+; settings: 200 μM compound, λex/λem: compound 1 300/390 nm, compound 3 315/357 nm, compound 4 365/520 nm
# Method: as §1, with “The HEPES buffer was prepared from commercially available 1M solution of the free acid and the pH was adjusted to 7.0 by the addition of KOH pellets in the presence of 0.135 M NaCl.” left out
# as §2, §3
# [6] = Fluorescence emission profile with stoichiometric divalent metal ion: Ni^2+; settings: 200 μM compound, λex/λem: compound 1 300/390 nm, compound 3 315/357 nm, compound 4 365/520 nm
# Method: as §1, with “The HEPES buffer was prepared from commercially available 1M solution of the free acid and the pH was adjusted to 7.0 by the addition of KOH pellets in the presence of 0.135 M NaCl.” left out
# as §2, §3
# [7] = Fluorescence emission profile with stoichiometric divalent metal ion: Mg^2+; settings: 200 μM compound, λex/λem: compound 1 300/390 nm, compound 3 315/357 nm, compound 4 365/520 nm
# Method: as §1, with “The HEPES buffer was prepared from commercially available 1M solution of the free acid and the pH was adjusted to 7.0 by the addition of KOH pellets in the presence of 0.135 M NaCl.” left out
# as §2, §3
# [8] = Fluorescence emission profile with stoichiometric divalent metal ion: Cd^2+; settings: 200 μM compound, λex/λem: compound 3 315/357 nm, compound 4 365/520 nm
# Method: as §1, with “The HEPES buffer was prepared from commercially available 1M solution of the free acid and the pH was adjusted to 7.0 by the addition of KOH pellets in the presence of 0.135 M NaCl.” left out
# (§4) The influence of divalent metal ions on the fluorescence spectral profile of compound 3 is shown in FIG. 3, where the fluorescence emission spectra of 200 μM compound 1 (λex=315 nm) with stoichiometric concentrations of selected divalent metal ions. […]
# [9] = Spectrofluorometric titration of compound with Zn^2+ (ZnCl2); assay type: binding; settings: approx.
# Method: as §1, with “The HEPES buffer was prepared from commercially available 1M solution of the free acid and the pH was adjusted to 7.0 by the addition of KOH pellets in the presence of 0.135 M NaCl.” left out
# To determine the magnitude of Zn^2+ induced fluorescence spectral changes of compound 1 as well as its binding affinity, a detailed spectrofluorometric titration study was performed.
# [10] = Fluorescence emission profile with stoichiometric divalent metal ion: Hg^2+; settings: 200 μM compound, λex/λem: compound 3 315/357 nm, compound 4 365/520 nm
# Method: as §1, with “The HEPES buffer was prepared from commercially available 1M solution of the free acid and the pH was adjusted to 7.0 by the addition of KOH pellets in the presence of 0.135 M NaCl.” left out
# as §4
Compound,divalent metal binding [1],solubility in the aqueous medium (Solubility; aqueous medium),solubility (Solubility),effect of Zn^2+ on fluorescence emission intensity ([2]; 200 μM compound),Zn^2+-induced fluorescence enhancement in the presence of excess Ca^2+ ([2]; 100 fold excess of Ca^2+),"increase of fluorescence emission intensity in the presence of Zn^2+ ([2]; stoichiometric concentration of Zn^2+, 200 μM compound, λex=300 nm)",effect of Ca^2+ on fluorescence emission intensity [3],effect of Cu^2+ on fluorescence emission intensity [4],effect of Co^2+ on fluorescence emission intensity [5],effect of Ni^2+ on fluorescence emission intensity [6],effect of Mg^2+ on fluorescence emission intensity [7],effect of Cd^2+ on fluorescence emission intensity [8],pKd [9],effect of Hg^2+ on fluorescence emission intensity [10],solubility in water and methanol (Solubility; water and methanol)
"Cc1cc(N(CC(=O)O)CC(=O)O)c(O)c(N(CC(=O)O)CC(=O)O)c1 [N,N,N′,N′-tetrakis(carboxylatemethyl)-2,6-diaminocresol]",binding to only Co^2+ or Cu^2+,,,,,,,,,,,,,,
"COc1c(N(CC(=O)[O-])CC(=O)[O-])cc(C)cc1N(CC(=O)[O-])CC(=O)[O-].[K+].[K+].[K+].[K+] [compound 1, Potassium-2,6-diamino-(N,N,N′,N′-tetraacetate)-4-methylanisole]",,high solubility,readily soluble,most dramatic effect,maintained,about 10 fold,only slightly increased,decreases,decreases,decreases,barely affected,,,,
"O=C([O-])CN(CC(=O)[O-])c1cccc(N(CC(=O)[O-])CC(=O)[O-])c1.[Na+].[Na+].[Na+].[Na+] [compound 3, Sodium 1,3-diamino-(N,N,N′,N′-tetraacetate)benzene]",,,,enhanced significantly,,,slightly enhanced,decreases,decreases,decreases,slightly enhanced,slightly enhanced,~2.70,slightly enhanced,
"Sodium 2,6-diamino-(N,N,N′,N′-tetraacetate)-3-nitroanisole [compound 4]",,,,substantially enhanced,,,slightly quenched,significantly quenched,significantly quenched,significantly quenched,slightly quenched,substantially enhanced,,no discernable effect,
"Zinc-2,6-diamino-(N,N,N′,N′-tetraacetate)-4-methylanisole [compound 1-Zn complex]",,,low solubility,,,,,,,,,,,,low solubility
